Measurements as given in PubChem BioAssay (NCI).
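Cultured in 96-well plates, cells were exposed to test compound for 48 hours across five concentrations. At the GI50, growth is halved. Definition used: TGI = concentration required for complete inhibition of growth.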

Key:
Test in all cases: NCI anticancer screen, dose series, 48 h
SK-MEL-28 melanoma = tested on: SK-MEL-28 melanoma
HOP-92 NSCLC = tested on: HOP-92 NSCLC
SF-539 CNS = tested on: SF-539 CNS
OVCAR-4 ovarian = tested on: OVCAR-4 ovarian
CAKI-1 renal = tested on: CAKI-1 renal
NCI-H23 lung = tested on: NCI-H23 lung
HCT-15 colon = tested on: HCT-15 colon
RPMI-8226 leukemia = tested on: RPMI-8226 leukemia
SF-268 CNS = tested on: SF-268 CNS
UO-31 renal = tested on: UO-31 renal

| Compound | TGI (SK-MEL-28 melanoma) [µM] | TGI (HOP-92 NSCLC) [µM] | TGI (SF-539 CNS) [µM] | TGI (OVCAR-4 ovarian) [µM] | TGI (CAKI-1 renal) [µM] | TGI (NCI-H23 lung) [µM] | TGI (HCT-15 colon) [µM] | TGI (RPMI-8226 leukemia) [µM] | TGI (SF-268 CNS) [µM] | TGI (UO-31 renal) [µM] | GI50 (RPMI-8226 leukemia) [µM] |
| --- | --- | --- | --- | --- | --- | --- | --- | --- | --- | --- | --- |
| Cc1ccsc1C(=S)Nc1ccc(Cl)c(C(=O)OC(C(C)C)C(C)C)c1 | > 100 | 61.3 | > 100 | > 100 | 59.8 | > 100 | > 100 | 45.1 | > 100 | > 100 |  |
| COP(=O)(CC(=O)C1OC(OCc2ccccc2)C(OCc2ccccc2)C(OCc2ccccc2)C1OCc1ccccc1)OC (stereo not given) | > 100 | 85.7 | 40.7 | 8.89 | 19.5 | > 100 | > 100 |  | > 100 | 7.1 |  |
| COc1cc(OC)c(C2c3cc4c(cc3OC(N3CCOCC3)C2C)OCO4)c(OC)c1 (stereo not given) | > 100 |  | > 100 |  |  | > 100 | > 100 | > 100 | > 100 | > 100 |  |
| COc1cc2c(cc1OCCCOc1cc3c(cc1OC)C(=O)N1CCC[C@H]1CN3)N=C[C@@H]1CCCN1C2=O | 0.749 |  | 0.411 | > 36.5 | 1.88 | 0.709 | > 24.5 | 0.654 | 0.473 | > 100 | 0.156 |
| CN1c2ccccc2C(=O)NC12CCN(CC1COc3ccccc3O1)CC2 (stereo not given) | > 100 | 71.3 | > 100 | > 100 |  | > 100 |  | > 100 | > 100 | > 100 |  |
| O=C(c1ccccc1)[C@H]1Nc2cnccc2C2c3ccccc3CC21 (stereo not given in full) | 18.9 | 37.4 | > 62.6 | > 76.9 | > 73.6 | 30.6 | 26.9 | 34.4 | 59.9 | > 40.4 |  |
| FC(F)=C(c1ccc(-c2ccc(Cl)cc2)cc1)C(F)(F)F | 28.4 | 33.4 | 45.3 | 33.5 | 46.3 | 35.4 | 42.2 | 51.8 | 56.3 | 31 |  |
| CCN(C(=O)N[C@H](C(=O)N[C@@H](C)C(=O)OC)C(C)C)c1ccccc1 | > 100 | 78.6 | 48.4 | > 100 | > 100 | > 100 | > 100 | > 100 | > 100 | > 100 |  |
| Cc1ccc2c(c1)C(=O)/C(=C\c1ccc(Cl)cc1)CCS2(=O)=O | 13.5 | 18.3 | 4.52 | 6.93 | 7.82 | 10.2 | 5.01 | 4.81 | 16.1 | 9.02 |  |
| CCOP(=O)(OCC)c1cc(-c2ccccc2)ccc1N | > 100 | > 100 |  | > 100 | > 100 | > 100 | > 100 | > 100 | > 100 | > 100 |  |
| Cc1ccc(C(=O)c2[nH]c(Nc3cc(C)ccn3)c(C(=S)Nc3ccccc3)c2N)cc1 | > 100 | > 100 | > 100 | > 100 | > 100 | > 100 | > 100 |  | > 100 | > 100 |  |
| COC(=O)C(=O)C(C(=O)C(=O)Nc1cc([N+](=O)[O-])ccc1C#N)c1nc2ccccc2[nH]c1=O (stereo not given) | > 100 | > 100 | > 100 | > 100 | > 100 | > 100 | > 100 |  | > 100 | > 100 |  |
| Cc1cn(C2CC(OC(c3ccccc3)(c3ccccc3)c3ccccc3)C(COC(c3ccccc3)(c3ccccc3)c3ccccc3)O2)c(=O)[nH]c1=O (stereo not given) | > 100 | 83.6 | > 100 | > 100 | > 100 |  | > 100 |  | > 100 | > 100 |  |
| CCOC(=O)c1ccc(C(=O)/C(C(=O)OC(C)(C)C)=C2\CCCN2C)n1C | > 100 |  | > 100 | > 100 | > 100 | > 100 | > 100 | > 100 | > 100 | > 100 |  |
| CC1=NC(C)(C)N(O)C1(C)C | > 100 | > 100 | > 100 | > 100 |  | > 100 | > 100 | > 100 | > 100 | > 100 |  |
| Cc1ccc(-n2cc(-c3ccc(Cl)cc3)c3c2N=CN2NC(c4ccco4)=NC32)cc1 (stereo not given) | > 100 | 9.88 | 51.3 | 4.03 | 27.3 | 72.4 | > 100 |  | 83.6 | 47.5 |  |
| CC1(C)OC(=O)C=C([O-])O1.CC1(C)OC(=O)C=C([O-])O1.O=c1c(O)c(-c2ccc([O-])cc2[O-])oc2cc(O)cc(O)c12.[Ti+4] | > 100 |  | 60.2 | > 100 | > 100 | 73.7 | > 100 | > 100 | 95.5 | 90.5 | 59 |
| O=CN(O)CC(=O)O | > 100 | > 100 | > 100 | > 100 |  | > 100 | > 100 | > 100 | > 100 | > 100 |  |
| CCOC(=O)c1c(NC(=S)Nc2ccc(C)cc2)sc2c1CCN(C)C2 |  |  | > 100 |  | > 100 | > 100 | > 100 | > 100 | > 100 | > 100 |  |
| CCNC(=S)N/N=C/c1ccccn1 | > 100 |  | 29.7 | 4.98 |  | 84.8 | > 100 |  | 7.56 | 23.6 |  |
| O=c1cc(-c2ccccc2F)[nH]c2cc3c(cc12)OCO3 | > 100 | > 100 | 0.357 | > 100 |  | 6.8 | 4.22 |  | > 100 | > 100 |  |
| CC1OC(n2cc(F)c(=O)[nH]c2=O)C(O[Si](C)(C)C(C)(C)C)C1O[Si](C)(C)C(C)(C)C (stereo not given) |  |  | 28.7 | 16.8 | 28.9 | 23 | 25.6 | 35.4 | 29.8 | 25.4 |  |
